Assay results: patent publication US9125388B2, “Biological control” (Isis Innovation Limited, priority 1999, dated 2015)

Assays:
Type in all cases: in vivo, Drosophila melanogaster
[1] = system: Yp3 tTa, tRe Ras64B^V12 on the 2nd chromosome; test: Recombinant chromosome experiments / maternal transmission of Tc (Table 1): parents raised on supplement, progeny on normal food, adults by sex; details: 25° C.
Procedure: (§1) 40-45 young females and 20-25 young males raised at 25° C. upon food with the indicated tetracycline supplement were allowed to mate, then transferred to normal (tetracycline-free) food after 3-4 days. These flies were transferred to fresh vials of normal food every day for 12 days, then removed on the 13th day. All the vials were incubated at 25° C. while the progeny developed. The numbers of male and female progeny emerging as adults in each vial were recorded.
(§2) A standard range of additive concentrations were used in the following experiments (0.05-20 μg/ml). […] (=“not done”)
(§3) All the preceding experiments were performed at 25° C., the standard temperature for Drosophila culture. However, the insects in the wild would clearly be exposed to varying temperatures, so we investigated the extent to which the efficiency of the system is affected by temperature. As with the recombinant chromosome experiments, 40-45 young virgin females and 20-25 young males raised at 25° C. upon food with the indicated tetracycline supplement were allowed to mate, then transferred to normal (tetracycline-free) food after 3-4 days. These flies were transferred to fresh vials of normal food every day. The numbers of male and female progeny emerging as adults in each vial were recorded. These experiments were performed at either 18° C. or 29° C.
We used a strain of Drosophila in which females, but not males, require Tc for viability.
A strain homozygous for second chromosome insertions of both Yp3-tTA and tRe-Ras64B^V12 was tested for the effect of parental dietary Tc. 40-45 young females and 20-25 young males raised at 25° C. upon food with the indicated tetracycline supplement were allowed to mate, then transferred to normal (tetracycline-free) food after 3-4 days. These flies were transferred to fresh vials of normal food every day for 12 days, and then removed on the 13th day. All the vials were incubated at 25° C. while the progeny developed. The total numbers of male and female progeny emerging as adults were recorded.

[2] = system: Sxl^pe-tTA, tRE-Msl-2^Nopu on the X chromosome; test: Recombinant chromosome experiments: parents raised on supplement, progeny on normal food, adults by sex (25, 18 or 29° C.); details: 25° C.
Procedure: as §1, §2, §3

[3] = system: Sxl^pe-tTA, tRE-Msl-2^Nopu on the third chromosome; test: as above; details: 25° C.
Procedure: as §1, §2, §3

[4] = system: Sxlp^e tTa, tRe Msl-1^Mpu on the X chromosome; test: as above; details: 25° C.
Procedure: as §1, §2, §3

[5] = system: Hsp26 tTa, tRe Msl-1^Mpu on the 2nd chromosome; test: as above; details: 25° C.
Procedure: as §1, §2, §3

[6] = system: Hsp26 tTa, tRe Msl-2^Nopu on the 2nd chromosome; test: as above; details: 25° C.
Procedure: as §1, §2, §3

[7] = system: Sxl^pe-tTA, tRE-Ras64B^V12 on the third chromosome; test: as above; details: 25° C.
Procedure: as §1, §2, §3

[8] = system: Sxl^pe-tTA, tRE-Ras64B^V12 on the X chromosome; test: as above
Procedure: as §1, §2, §3

[9] = system: Yp3 tTa, tRe Msl-1^Mpu on the 2nd chromosome; test: as above; details: 25° C.
Procedure: as §1
Since there is no meiotic recombination in Drosophila melanogaster males, any of these recombinant chromosomes could be used in a genetic sexing or insect control program, if required.
as §2, §3

[10] = system: Recombinant chromosome stocks; test: Maintenance of stocks on non-antibiotic tetracycline analogues
Procedure: Recombinant chromosome stocks can readily be maintained at 25° C. on epioxytetracycline concentrations of 1 μg/ml or anhydrotetracycline concentrations of 0.1 μg/ml, showing that these non-antibiotic tetracycline analogues are effective in repressing tTA responsive gene expression.
as §2

[11] = parents raised on epioxytetracycline 1 μg/ml
[12] = parents raised on epioxytetracycline 5 μg/ml
[13] = parents raised on epioxytetracycline 20 μg/ml
[14] = Epioxytetracycline Conc. 1 μg/ml
[15] = Epioxytetracycline Conc. 5 μg/ml
[16] = Epioxytetracycline Conc. 20 μg/ml

In the case of `CN(C)[C@H]1C(O)=C(C(N)=O)C(=O)[C@@]2(O)C(O)=C3C(=O)c4c(O)cccc4[C@@](C)(O)[C@H]3[C@H](O)[C@@H]12` [epioxytetracycline], the “Female progeny emerging as adults” value [1, 11] is reported as 0, the “Male progeny emerging as adults” value [1, 11] is reported as 1431 and the “Female progeny emerging as adults” value [1, 12] is reported as 0. The “Male progeny emerging as adults” value [1, 12] was 1424, the “Female progeny emerging as adults” value [1, 13] was 0 and the “Male progeny emerging as adults” value [1, 13] was 1387. For the same compound, the “Female progeny emerging as adults” value [2, 11] was 0, the “Male progeny emerging as adults” value [2, 11] was 1076 and the “Female progeny emerging as adults” value [2, 12] was 0. The “Male progeny emerging as adults” value [2, 12] was 1119, the “Female progeny emerging as adults” value [2, 13] was 0 and the “Male progeny emerging as adults” value [2, 13] was 1159. For the same compound, the “Female progeny emerging as adults” value [3, 11] was 0, the “Male progeny emerging as adults” value [3, 11] was 1250 and the “Female progeny emerging as adults” value [3, 12] was 0. The “Male progeny emerging as adults” value [3, 12] was 1300, the “Female progeny emerging as adults” value [3, 13] was 0 and the “Male progeny emerging as adults” value [3, 13] was 1364. For the same compound, the “Female progeny emerging as adults” value [4, 11] was 0, the “Male progeny emerging as adults” value [4, 11] was 1483 and the “Female progeny emerging as adults” value [4, 12] was 0. The “Male progeny emerging as adults” value [4, 12] was 1585, the “Female progeny emerging as adults” value [4, 13] was 0 and the “Male progeny emerging as adults” value [4, 13] was 1565. For the same compound, the “Female progeny emerging as adults” value [5, 11] was 0, the “Male progeny emerging as adults” value [5, 11] was 1243 and the “Female progeny emerging as adults” value [5, 12] was 0. For the same compound, the “Male progeny emerging as adults” value [5, 12] was 1409, the “Female progeny emerging as adults” value [5, 13] was 0 and the “Male progeny emerging as adults” value [5, 13] was 1373. For the same compound, the “Female progeny emerging as adults” value [6, 11] was 0, the “Male progeny emerging as adults” value [6, 11] was 1362 and the “Female progeny emerging as adults” value [6, 12] was 0. For the same compound, the “Male progeny emerging as adults” value [6, 12] was 1181, the “Female progeny emerging as adults” value [6, 13] was 0 and the “Male progeny emerging as adults” value [6, 13] was 1403. For the same compound, the “Female progeny emerging as adults” value [7, 11] was 0, the “Male progeny emerging as adults” value [7, 11] was 1165 and the “Female progeny emerging as adults” value [7, 12] was 0. For the same compound, the “Male progeny emerging as adults” value [7, 12] was 1279, the “Female progeny emerging as adults” value [7, 13] was 0 and the “Male progeny emerging as adults” value [7, 13] was 1257. It also gave a Female progeny [8, 14] of 0, a Male progeny [8, 14] of 1306 and a Female progeny [8, 15] of 0. It also gave a Male progeny [8, 15] of 1581, a Female progeny [8, 16] of 0 and a Male progeny [8, 16] of 1495. The “Female progeny emerging as adults” value [9, 11] was 0, the “Male progeny emerging as adults” value [9, 11] was 1350 and the “Female progeny emerging as adults” value [9, 12] was 0. The “Male progeny emerging as adults” value [9, 12] was 1308, the “Female progeny emerging as adults” value [9, 13] was 0 and the “Male progeny emerging as adults” value [9, 13] was 1343. The “concentration on which recombinant chromosome stocks can readily be maintained” value ([10]; 25° C.) was 1 µg/mL, the “repressing tTA responsive gene expression” value ([10]; 25° C.) was “effective” and the “concentration required to repress gene expression, compared with tetracycline” value ([10]; in vivo) was “slightly higher concentrations are required”. For the same compound, the “stock maintenance at the two lowest concentrations” value ([10]; standard range of additive concentrations 0.05-20 μg/ml) was “unable to maintain stock”.
